Our source for the DC50 values is patent US20260306640A1, “TECHNOLOGIES TARGETING CELL STATES” (Auron Therapeutics, Inc., priority 2023, published 2026).

In one assay the target is KAT2B (Homo sapiens, UniProt Q92831). The experiment in a line: KAT2B degradation, Western Blot (Jess), NCI-H1048 cells. The class given is cell-based. Also on record: degrader, Western blot (Jess). Particulars: NCI-H1048 cells, KAT2B, 24 h, Western Blot, vs DMSO; read-out: KAT2B NCI-H1048 DC50. Put shortly: (§1)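 DC50 came from protein loss relative to DMSO, measured by Jess capillary immunoblot of RIPA lysates with chemiluminescence read-out. Before lysis, NCI-H1048 cells in 5% FBS HITES medium were exposed to compound for 24 h at 37° C.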
Chain of KAT2B (Q92831 whole entry): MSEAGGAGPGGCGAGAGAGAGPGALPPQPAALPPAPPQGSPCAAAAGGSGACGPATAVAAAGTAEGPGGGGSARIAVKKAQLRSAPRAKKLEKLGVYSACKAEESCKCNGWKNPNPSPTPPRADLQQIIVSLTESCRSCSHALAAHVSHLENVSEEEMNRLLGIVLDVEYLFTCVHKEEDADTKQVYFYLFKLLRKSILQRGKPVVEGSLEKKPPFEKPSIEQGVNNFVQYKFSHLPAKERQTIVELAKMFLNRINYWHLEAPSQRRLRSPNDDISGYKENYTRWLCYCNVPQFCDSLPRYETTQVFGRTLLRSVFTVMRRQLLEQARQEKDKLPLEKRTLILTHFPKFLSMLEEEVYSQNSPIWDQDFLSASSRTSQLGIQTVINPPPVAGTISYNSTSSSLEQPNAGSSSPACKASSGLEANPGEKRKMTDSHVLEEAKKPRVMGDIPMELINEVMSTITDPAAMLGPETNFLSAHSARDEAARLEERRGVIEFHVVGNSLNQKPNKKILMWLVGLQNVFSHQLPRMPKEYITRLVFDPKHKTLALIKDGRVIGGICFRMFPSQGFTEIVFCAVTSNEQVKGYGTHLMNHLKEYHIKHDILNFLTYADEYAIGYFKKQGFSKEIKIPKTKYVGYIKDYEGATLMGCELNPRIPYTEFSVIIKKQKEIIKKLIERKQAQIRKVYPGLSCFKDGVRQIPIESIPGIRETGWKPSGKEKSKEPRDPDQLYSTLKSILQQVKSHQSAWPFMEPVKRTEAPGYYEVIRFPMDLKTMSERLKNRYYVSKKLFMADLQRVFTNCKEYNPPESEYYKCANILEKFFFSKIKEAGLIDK
A general note: A western blot detects proteins with antibodies after separation by electrophoresis.

For another assay, the target named is KAT2A (Homo sapiens, UniProt Q92830). The experiment in a line: KAT2A degradation, Western Blot (Jess), NCI-H1048 cells. The class given is cell-based. Also on record: degrader, Western blot (Jess). Particulars: NCI-H1048 cells, KAT2A, 24 h, Western Blot, vs DMSO; read-out: KAT2A NCI-H1048 DC50. In short, it runs like this: as §1
Chain of KAT2A (Q92830 whole entry): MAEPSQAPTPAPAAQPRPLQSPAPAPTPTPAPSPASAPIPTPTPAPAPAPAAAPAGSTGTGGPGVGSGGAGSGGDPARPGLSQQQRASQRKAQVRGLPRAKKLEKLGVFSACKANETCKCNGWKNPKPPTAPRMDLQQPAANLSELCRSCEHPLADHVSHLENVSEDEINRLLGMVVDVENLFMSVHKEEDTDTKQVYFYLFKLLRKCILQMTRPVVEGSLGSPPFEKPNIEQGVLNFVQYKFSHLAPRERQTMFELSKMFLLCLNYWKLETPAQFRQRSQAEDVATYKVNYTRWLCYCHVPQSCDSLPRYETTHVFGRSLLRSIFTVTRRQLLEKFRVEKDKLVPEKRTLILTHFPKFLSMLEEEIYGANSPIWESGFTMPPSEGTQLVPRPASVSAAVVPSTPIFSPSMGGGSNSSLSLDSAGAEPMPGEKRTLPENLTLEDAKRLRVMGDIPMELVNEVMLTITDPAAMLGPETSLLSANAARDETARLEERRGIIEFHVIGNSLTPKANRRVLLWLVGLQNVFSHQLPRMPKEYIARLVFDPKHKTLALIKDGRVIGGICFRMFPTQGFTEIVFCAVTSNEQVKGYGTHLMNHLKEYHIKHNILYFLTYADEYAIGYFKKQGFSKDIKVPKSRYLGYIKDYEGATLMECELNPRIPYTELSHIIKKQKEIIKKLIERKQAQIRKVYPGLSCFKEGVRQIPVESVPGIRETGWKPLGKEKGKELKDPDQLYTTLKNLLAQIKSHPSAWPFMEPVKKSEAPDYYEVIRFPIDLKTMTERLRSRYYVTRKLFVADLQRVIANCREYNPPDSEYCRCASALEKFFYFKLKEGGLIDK

Each structure is given as a SMILES string.

Turning to `CN1CC(Nc2cnn(C)c(=O)c2Cl)CC(c2ccc(CN3CCN(c4cccc(OC5CCC(=O)NC5=O)c4)CC3)cc2)C1` (stereo not shown) [Compound 368], the DC50 – broadly, the midpoint of the concentration-degradation curve – was > 30 nM on KAT2B and 1 to 30 nM on KAT2A.
On to `CN1C[C@H](Nc2cnn(C)c(=O)c2Cl)C[C@H](c2ccc(CN3C4CC3CN(c3cccc(C5CCC(=O)NC5=O)c3)C4)cc2)C1` (stereo partly shown) [Compound 369], for which the DC50 at KAT2B was > 30 nM; on KAT2A, 1 to 30 nM.
`CN1C[C@H](Nc2cnn(C)c(=O)c2Cl)C[C@H](c2ccc(C(=O)N3CCC4(CC3)CCN(c3ccc(NC5CCC(=O)NC5=O)c(F)c3)CC4)cc2)C1` (stereo partly shown) [Compound 372]: the DC50 at KAT2B was 1 to 30 nM; on KAT2A, < 1 nM.
Consider `CN1C[C@H](Nc2cnn(C)c(=O)c2Br)C[C@H](c2ccc(C(=O)N3CCC4(CC3)CCN(c3ccc(NC5CCC(=O)NC5=O)c(F)c3)CC4)cc2)C1` (stereo partly shown) [Compound 373], for which the half-maximal degradation concentration (DC50) is 1 to 30 nM on KAT2B and < 1 nM on KAT2A.
For `CN1C[C@H](Nc2cnn(C)c(=O)c2Br)C[C@H](c2ccc(C(=O)N3CCC4(CC3)CCN(c3ccc5c(N6CCC(=O)NC6=O)nccc5c3)CC4)cc2)C1` [Compound 374], in that order: > 30 nM and < 1 nM.
With `CN1C[C@H](Nc2cnn(C)c(=O)c2Cl)C[C@H](c2ccc(C(=O)N3CCC4(CC3)CCN(c3ccc5c(N6CCC(=O)NC6=O)nccc5c3)CC4)cc2)C1` [Compound 376], the DC50 at KAT2B and on KAT2A was > 30 nM in each case.
`CN1C[C@H](Nc2cnn(C)c(=O)c2Br)C[C@H](c2ccc(C(=O)N3CCC(c4ccc5c(C6CCC(=O)NC6=O)nccc5c4)CC3)cc2)C1` (stereo partly shown) [Compound 377]: the DC50 at KAT2B is > 30 nM; on KAT2A it was < 1 nM.
Turning to `Cc1c(N[C@@H]2C[C@H](c3ccc(C(=O)N4CCC(c5ccc6c(C7CCC(=O)NC7=O)cncc6c5)CC4)cc3)CN(C)C2)cnn(C)c1=O` (stereo partly shown) [Compound 378], the DC50 was > 30 nM at KAT2B and 1 to 30 nM on KAT2A.
For the molecule `CN1C[C@H](Nc2cnn(C)c(=O)c2Cl)C[C@H](c2ccc(C(=O)N3CCC(c4ccc5c(C6CCC(=O)NC6=O)nccc5c4)CC3)cc2)C1` (stereo partly shown) [Compound 379], the DC50 was > 30 nM at KAT2B and < 1 nM on KAT2A.
Turning to `CN1C[C@H](Nc2cnn(C)c(=O)c2Br)C[C@H](c2ccc(CN3CCN(c4ccc5c(C6CCC(=O)NC6=O)cncc5c4)CC3)cc2)C1` (stereo partly shown) [Compound 380], the DC50 at KAT2B and on KAT2A was < 1 nM throughout.
As to `CN1C[C@H](Nc2cnn(C)c(=O)c2Cl)C[C@H](c2ccc(CN3CCN(c4ccc5c(C6CCC(=O)NC6=O)cncc5c4)CC3)cc2)C1` (stereo partly shown) [Compound 381], the DC50 on KAT2B is < 1 nM; on KAT2A, 1 to 30 nM.
Take `CN1C[C@H](Nc2cnn(C)c(=O)c2Br)C[C@H](c2ccc(CN3CCN(c4ccc5c(C6CCC(=O)NC6=O)nccc5c4)CC3)cc2)C1` (stereo partly shown) [Compound 382]: the DC50 at KAT2B and at KAT2A was < 1 nM throughout.
For `CN1C[C@H](Nc2cnn(C)c(=O)c2Cl)C[C@H](c2ccc(CN3CCN(c4ccc5c(C6CCC(=O)NC6=O)nccc5c4)CC3)cc2)C1` (stereo partly shown) [Compound 383], the 50% degradation concentration (DC50) at KAT2B is 1 to 30 nM; on KAT2A, < 1 nM.
For the molecule `CN1C[C@H](Nc2cnn(C)c(=O)c2Br)C[C@H](c2ccc(C(=O)N3CCN(c4ccc5nc(C6CCC(=O)NC6=O)ccc5c4)CC3)cc2)C1` (stereo partly shown) [Compound 384], the DC50 at KAT2B and on KAT2A was < 1 nM throughout.
As to `CN1C[C@H](Nc2cnn(C)c(=O)c2Br)C[C@H](c2ccc(CN3CCN(c4ccc5nc(C6CCC(=O)NC6=O)ccc5c4)CC3)cc2)C1` (stereo partly shown) [Compound 385], the DC50 on KAT2B and at KAT2A was 1 to 30 nM throughout.
In the case of `CN1C[C@H](Nc2cnn(C)c(=O)c2Br)C[C@H](c2ccc(CN3CCC(c4cccc(C5CCC(=O)NC5=O)c4)C(F)(F)C3)cc2)C1` (stereo partly shown) [Compound 386], the DC50 is > 30 nM on KAT2B and 1 to 30 nM at KAT2A.
As for `Cc1c(N[C@@H]2C[C@H](c3ccc(CN4CCC(c5cccc(C6CCC(=O)NC6=O)c5)C(F)(F)C4)cc3)CN(C)C2)cnn(C)c1=O` (stereo partly shown) [Compound 387], the DC50 was > 30 nM at KAT2B and < 1 nM on KAT2A.
In the case of `CN1C[C@H](Nc2cnn(C)c(=O)c2Br)C[C@H](c2ccc(CN3CCC(c4ccc5c(C6CCC(=O)NC6=O)cncc5c4)C(F)(F)C3)cc2)C1` (stereo partly shown) [Compound 388], the DC50 at KAT2B and at KAT2A was < 1 nM in each case.
On to `CN1C[C@H](Nc2cnn(C)c(=O)c2Cl)C[C@H](c2ccc(CN3CCC(c4ccc5c(C6CCC(=O)NC6=O)cncc5c4)C(F)(F)C3)cc2)C1` (stereo partly shown) [Compound 389], for which the 50% degradation concentration (DC50) at KAT2B and on KAT2A was < 1 nM throughout.
Consider `CN1C[C@H](Nc2cnn(C)c(=O)c2Cl)C[C@H](c2ccc(CN3CCC(c4cccc(C5CCC(=O)NC5=O)c4)C(F)(F)C3)cc2)C1` (stereo partly shown) [Compound 390], for which the DC50 at KAT2B was > 30 nM; at KAT2A it was 1 to 30 nM.
In the case of `CN1C[C@H](Nc2cnn(C)c(=O)c2Br)C[C@H](c2ccc(CN3CCC(c4ccc5c(c4)C(=O)N(C4CCC(=O)NC4=O)C5=O)C(F)(F)C3)cc2)C1` (stereo partly shown) [Compound 391], the DC50 at KAT2B was < 1 nM; at KAT2A, > 30 nM.
Turning to `Cc1cc(N2CCC3(CCN(C(=O)c4ccc([C@H]5C[C@@H](Nc6cnn(C)c(=O)c6Br)CN(C)C5)cc4)CC3)CC2)ccc1N1CCC(=O)NC1=O` [Compound 395], the DC50 at KAT2B and at KAT2A was < 1 nM throughout.
As for `Cc1cc(N2CCC3(CCN(C(=O)c4ccc([C@H]5C[C@@H](Nc6cnn(C)c(=O)c6Cl)CN(C)C5)cc4)CC3)CC2)ccc1N1CCC(=O)NC1=O` [Compound 396], the half-maximal degradation concentration (DC50) on KAT2B and at KAT2A was < 1 nM each time.
For `CN1C[C@H](Nc2cnn(C)c(=O)c2Br)C[C@H](c2ccc(C(=O)N3CCC4(CC3)CCN(c3ccc(N5CCC(=O)NC5=O)c(F)c3)CC4)cc2)C1` [Compound 397], the DC50 at KAT2B and on KAT2A was < 1 nM each time.
Regarding `CN1C[C@H](Nc2cnn(C)c(=O)c2Cl)C[C@H](c2ccc(C(=O)N3CCC4(CC3)CCN(c3ccc(N5CCC(=O)NC5=O)c(F)c3)CC4)cc2)C1` [Compound 398], the DC50 on KAT2B and on KAT2A was < 1 nM each time.
In the case of `Cc1cc(N2CCC3(CCN(C(=O)c4ccc([C@H]5C[C@@H](Nc6cnn(C)c(=O)c6Cl)CN(C)C5)cc4)CC3)CC2)cc(C)c1N1CCC(=O)NC1=O` [Compound 399], the DC50 on KAT2B and at KAT2A was > 30 nM each time.
Consider `CN1C[C@H](Nc2cnn(C)c(=O)c2Cl)C[C@H](c2ccc(N3CCC4(CC3)CCN(c3cccc(CN5CCC(=O)NC5=O)c3)CC4)cc2)C1` [Compound 401], for which the DC50 at KAT2B is > 30 nM; on KAT2A, < 1 nM.
Regarding `CN1C[C@H](Nc2cnn(C)c(=O)c2Br)C[C@H](c2ccc(C(=O)N3CCC4(CC3)CCN(c3ccc(C(=O)NC5CCC(=O)NC5=O)nc3)CC4)cc2)C1` (stereo partly shown) [Compound 402], the 50% degradation concentration (DC50) at KAT2B and at KAT2A was < 1 nM throughout.
For `CN1C[C@H](Nc2cnn(C)c(=O)c2Cl)C[C@H](c2ccc(C(=O)N3CCC4(CC3)CCN(c3ccc(C(=O)NC5CCC(=O)NC5=O)nc3)CC4)cc2)C1` (stereo partly shown) [Compound 403], the DC50 is 1 to 30 nM at KAT2B and < 1 nM on KAT2A.
For the molecule `CN1C[C@H](Nc2cnn(C)c(=O)c2Br)C[C@H](c2ccc(C(=O)N3CCC4(CC3)CCN(c3cnc(C(=O)NC5CCC(=O)NC5=O)c(F)c3)CC4)cc2)C1` (stereo partly shown) [Compound 404], the values for the 50% degradation concentration (DC50) on KAT2B and on KAT2A were 1 to 30 nM and < 1 nM, respectively.
With `CN1C[C@H](Nc2cnn(C)c(=O)c2Cl)C[C@H](c2ccc(C(=O)N3CCC4(CC3)CCN(c3ccc(C(=O)NC5CCC(=O)NC5=O)c(F)c3)CC4)cc2)C1` (stereo partly shown) [Compound 405], the DC50 is 1 to 30 nM at KAT2B and < 1 nM on KAT2A.
Take `Cc1ncsc1-c1ccc(CNC(=O)[C@@H]2C[C@@H](O)CN2C(=O)[C@@H](NC(=O)CN2CCN(C3CCN(C(=O)c4ccc([C@H]5C[C@@H](Nc6cnn(C)c(=O)c6Br)CN(C)C5)cc4)CC3)CC2)C(C)(C)C)cc1` [Compound 408]: the DC50 at KAT2B and on KAT2A was > 30 nM in each case.
With `Cc1ncsc1-c1ccc(CNC(=O)[C@@H]2C[C@@H](O)CN2C(=O)[C@@H](NC(=O)CN2CCC(N3CCN(C(=O)c4ccc([C@H]5C[C@@H](Nc6cnn(C)c(=O)c6Br)CN(C)C5)cc4)CC3)CC2)C(C)(C)C)cc1` [Compound 409], the DC50 at KAT2B is > 30 nM; on KAT2A, 1 to 30 nM.
As for `Cc1ncsc1-c1ccc(CNC(=O)[C@@H]2C[C@@H](O)CN2C(=O)[C@@H](NC(=O)CC2CCN(C(=O)c3ccc([C@H]4C[C@@H](Nc5cnn(C)c(=O)c5Br)CN(C)C4)cc3)CC2)C(C)(C)C)cc1` [Compound 411], the DC50 at KAT2B and at KAT2A was > 30 nM each time.
In the case of `Cc1ncsc1-c1ccc(CNC(=O)[C@@H]2C[C@@H](O)CN2C(=O)[C@@H](NC(=O)CCCCCCCCNC(=O)c2ccc([C@H]3C[C@@H](Nc4cnn(C)c(=O)c4Br)CN(C)C3)cc2)C(C)(C)C)cc1` [Compound 420], the DC50 at KAT2B and at KAT2A was > 30 nM each time.
As to `Cc1ncsc1-c1ccc(CNC(=O)[C@@H]2C[C@@H](O)CN2C(=O)[C@@H](NC(=O)CCCCCNC(=O)c2ccc([C@H]3C[C@@H](Nc4cnn(C)c(=O)c4Br)CN(C)C3)cc2)C(C)(C)C)cc1` [Compound 421], the DC50 on KAT2B and on KAT2A was > 30 nM in each case.
Regarding `Cc1ncsc1-c1ccc(CNC(=O)[C@@H]2C[C@@H](O)CN2C(=O)[C@@H](NC(=O)CCCCNC(=O)c2ccc([C@H]3C[C@@H](Nc4cnn(C)c(=O)c4Br)CN(C)C3)cc2)C(C)(C)C)cc1` [Compound 422], the DC50 on KAT2B and at KAT2A was > 30 nM each time.
As for `Cc1ncsc1-c1ccc(CNC(=O)[C@@H]2C[C@@H](O)CN2C(=O)[C@@H](NC(=O)COCCOCCNC(=O)c2ccc(C3CC(Nc4cnn(C)c(=O)c4Br)CN(C)C3)cc2)C(C)(C)C)cc1` (stereo partly shown) [Compound 423], the DC50 at KAT2B and at KAT2A was > 30 nM throughout.
